Data from patent US10907219B2, “Compositions and methods for controlling cellular function” (STC.UNM, priority 2014, dated 2021).

How the values were obtained:
[1] = tested on: CHO cells transfected with ABA-inducible luciferase constructs; assay: ABA-inducible luciferase assay; format: cell-based; details: 10 μM (mixture 10 μM each), 24 hours
[2] = ABA-Fe reactivity and selectivity towards Fe^2+ (HPLC); format: physicochemical; details: 37° C., one hour
Procedure: ABA-Fe reactivity and selectivity towards Fe^2+: 100 μM ABA-Fe with 1 mM Fe^2+ (in 50% HEPES/DMSO buffer, pH=7.4), and 100 μM ABA-Fe with 1 mM Fe^3+ (in 50% HEPES/DMSO buffer, pH=7.4) were incubated at 37° C. for one hour before HPLC detection. The percentages for molecule cleavage were quantified by the peak area of ABA out of the total peak area.
(§1) HPLC chromatograms were acquired using an ULTIMATE 3000 LC System (Thermo Fisher Scientific, Waltham, Mass.) with ACCLAIM 120 Å, C18, 3 μm analytical (4.6×100 mm) column (Thermo Fisher Scientific, Waltham, Mass.). Chromatographic conditions: eluent A: 0.1% v/v TFA in water; eluent B: 0.1% v/v TFA in acetonitrile. ABA in ethanol or ABA-HP in DMSO was eluted at a flow rate of 0.750 ml/min monitored at a wavelength of 260 nm. 0-12 min (linear): 95% A, 5% B to 5% A, 95% B; 12-15 min: 5% A, 95% B; 15-17 min (linear): 5% A, 95% B to 95% A, 5% B. Generation of ABA was quantified by the peak area of ABA out of the total peak area.

[3] = tested on: HEK 293 EGFP reporter cells; assay: Cell stability of ABA-Fe molecules; format: cell-based
Procedure: Mammalian Cell Culture: HEK 293 EGFP reporter cells were cultured in Dulbecco's modified Eagle's medium (DMEM, GIBCO, Life Technologies, Carlsbad, Calif.) with 10% Fetal Bovine Serum (FBS, GIBCO, Life Technologies, Carlsbad, Calif.), 1× […] (100× from GIBCO, Life Technologies, Carlsbad, Calif.), and 1× Penicillin/Streptomycin (Pen/Strep, 100× from GIBCO, Life Technologies, Carlsbad, Calif.). Cells were plated with the starting concentration of 200,000 cells per well in a 24-well plate (Greiner Bio-One GmbH; Frickenhausen, Germany) for a day, and then were treated with either 10 μM of ABA-Fe and 20 μM of DFO, 10 μM of ABA-Fe only, or 10 μM of ABA-Fe and 100 μM of Fe^2+ aqueous solution.
Imagines for green fluorescence were taken for living cells every two hours after adding in those molecules by microscopy illumination system (Axio Observer; Carl Zeiss AG, Oberkochen, Germany). Each type of the experiment was carried out as duplex.

[4] = Chemical stability of ABA-Fe molecules (HPLC); format: physicochemical; details: 100 μM, 50% HEPES/DMSO pH 7.4, 37° C., one hour
Procedure: Chemical stability of ABA-Fe molecules: 100 μM ABA-Fe (in 50% HEPES/DMSO buffer, pH=7.4) was incubated at 37° C. for one hour before HPLC detection. The percentages for molecule cleavage were quantified by the peak area of ABA out of the total peak area.
as §1

From the text for transfected cells: A concern of using UV-triggered reactions in cells is phototoxicity.

CC1=CC(=O)CC(C)(C)C1(O)/C=C/C(C)=C/C(=O)O (single isomer, unassigned) [2-trans isomer]
induced luciferase expression (activity of ABA isomers) [1]: reduced activity

CC1=CC(=O)CC(C)(C)[C@@]1(O)/C=C/C(C)=C\C(=O)ONC(C)c1ccccc1 (stereo partly drawn) [Compound 8]
selectivity towards Fe^2+ vs Fe^3+ ([2]; 100 μM with 1 mM Fe^2+ or Fe^3+): exhibits selectivity
reactivity (cleavage) towards Fe^2+ ([2]; 100 μM with 1 mM Fe^2+): exhibits Fe^2+ reactivity
stability in cells [3]: stable in cells
chemical stability [4]: chemically stable

dimethoxynitrosobenzaldehyde [DMNB-derived photoproduct]
toxicity (transfected cells): does not cause observable toxicity
